Source: patent publication US9260439B2, “Dihydropyrrolopyrimidine derivatives” (PFIZER INC., priority 2014, dated 2016)

Biological target: truncated PI3Kα (p110α/iSH2 p85α) (Homo sapiens (Human), UniProt P42336)
Assay: PI3KA_Act fluorescence polarization kinase assay (Ki)
Assay type: biochemical
Conditions: 1 mM ATP
Summary of the method: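 Ki values result from fitting fluorescence polarization signals to the Morrison equation for tight-binding competitive inhibitors. The detector was GST-Grp1 PH domain with TAMRA-PIP3, read after a 30 min room-temperature reaction of 0.5 nM truncated PI3Kα and 30 μM PIP2 at pH 7.4 in HEPES/NaCl/MgCl2/DTT/CHAPS buffer. Compounds were tested as 12-point 3-fold dilutions from 3 μM.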

truncated PI3Kα (p110α/iSH2 p85α), sequence (P42336 whole entry, the tested form may be a part): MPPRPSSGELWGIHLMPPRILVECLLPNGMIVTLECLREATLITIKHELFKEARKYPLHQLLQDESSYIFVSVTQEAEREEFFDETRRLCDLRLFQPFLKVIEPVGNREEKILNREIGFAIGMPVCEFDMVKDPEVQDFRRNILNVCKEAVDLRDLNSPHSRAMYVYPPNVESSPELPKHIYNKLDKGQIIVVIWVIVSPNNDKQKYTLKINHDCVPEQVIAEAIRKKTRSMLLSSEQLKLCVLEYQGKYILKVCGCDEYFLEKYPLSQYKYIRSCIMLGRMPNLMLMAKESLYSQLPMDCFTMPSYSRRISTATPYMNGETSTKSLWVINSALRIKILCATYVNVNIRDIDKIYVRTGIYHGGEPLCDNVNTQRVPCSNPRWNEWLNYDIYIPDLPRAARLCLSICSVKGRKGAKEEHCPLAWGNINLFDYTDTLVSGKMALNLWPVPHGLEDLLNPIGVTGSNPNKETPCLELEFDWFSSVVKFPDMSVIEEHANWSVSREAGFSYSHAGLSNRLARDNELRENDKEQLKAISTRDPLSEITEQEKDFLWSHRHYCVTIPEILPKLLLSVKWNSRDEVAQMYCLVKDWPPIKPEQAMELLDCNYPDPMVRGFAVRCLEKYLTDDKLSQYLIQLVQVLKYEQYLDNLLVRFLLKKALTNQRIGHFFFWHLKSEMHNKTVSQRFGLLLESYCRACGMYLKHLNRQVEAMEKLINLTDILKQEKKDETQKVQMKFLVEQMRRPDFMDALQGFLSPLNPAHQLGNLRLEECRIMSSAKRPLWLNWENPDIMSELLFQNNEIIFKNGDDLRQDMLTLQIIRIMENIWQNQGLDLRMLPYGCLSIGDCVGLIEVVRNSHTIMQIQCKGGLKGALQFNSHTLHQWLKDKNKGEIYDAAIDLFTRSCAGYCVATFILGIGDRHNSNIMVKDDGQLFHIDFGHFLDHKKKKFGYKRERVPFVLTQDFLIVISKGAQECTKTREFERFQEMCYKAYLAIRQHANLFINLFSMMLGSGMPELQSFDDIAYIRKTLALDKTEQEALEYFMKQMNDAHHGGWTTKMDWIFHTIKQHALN

## CC(C)(C(=O)O)C(=O)N1CC[C@](C)(N2CCc3c(-c4cnc(N)nc4)nc(N4CCOCC4)nc32)C1 [Example 319, 3-{(3S)-3-[4-(2-aminopyrimidin-5-yl)-2-(morpholin-4-yl)-5,6-dihydro-7H-pyrrolo[2,3-d]pyrimidin-7-yl]-3-methylpyrrolidin-1-yl}-2,2-dimethyl-3-oxopropanoic acid]
  PI3KA_Act Ki: 2.266 nM

## CC(C(=O)O)C(=O)N1CC[C@](C)(N2CCc3c(-c4cnc(N)nc4)nc(N4CCOCC4)nc32)C1 (stereo partly drawn) [Example 320, 3-{(3S)-3-[4-(2-aminopyrimidin-5-yl)-2-(morpholin-4-yl)-5,6-dihydro-7H-pyrrolo[2,3-d]pyrimidin-7-yl]-3-methylpyrrolidin-1-yl}-2-methyl-3-oxopropanoic acid]
  PI3KA_Act Ki: 0.318 nM

## CCOC(=O)C(C)C(=O)N1CC[C@](C)(N2CCc3c(-c4cnc(N)nc4)nc(N4CCOCC4)nc32)C1 (stereo partly drawn) [Example 321, ethyl 3-{(3S)-3-[4-(2-aminopyrimidin-5-yl)-2-(morpholin-4-yl)-5,6-dihydro-7H-pyrrolo[2,3-d]pyrimidin-7-yl]-3-methylpyrrolidin-1-yl}-2-methyl-3-oxopropanoate]
  PI3KA_Act Ki: 0.042 nM

## CCOC(=O)C(C)(C)C(=O)N1CC[C@](C)(N2CCc3c(-c4cnc(N)nc4)nc(N4CCOCC4)nc32)C1 [Example 322, ethyl 3-{(3S)-3-[4-(2-aminopyrimidin-5-yl)-2-(morpholin-4-yl)-5,6-dihydro-7H-pyrrolo[2,3-d]pyrimidin-7-yl]-3-methylpyrrolidin-1-yl}-2,2-dimethyl-3-oxopropanoate]
  PI3KA_Act Ki: <0.018 nM

## C[C@]1(N2CCc3c(-c4cnc(N)nc4)nc(N4CCOCC4)nc32)CCN(C(=O)CC2CC2)C1 [Example 323, 1-{(3S)-3-[4-(2-aminopyrimidin-5-yl)-2-(morpholin-4-yl)-5,6-dihydro-7H-pyrrolo[2,3-d]pyrimidin-7-yl]-3-methylpyrrolidin-1-yl}-2-cyclopropylethanone]
  PI3KA_Act Ki: <0.018 nM

## C[C@@]1(N2CCc3c(-c4cnc(N)nc4)nc(N4CCOCC4)nc32)CCN(C(=O)CC2CC2)C1 [Example 324, 1-{(3R)-3-[4-(2-aminopyrimidin-5-yl)-2-(morpholin-4-yl)-5,6-dihydro-7H-pyrrolo[2,3-d]pyrimidin-7-yl]-3-methylpyrrolidin-1-yl}-2-cyclopropylethanone]
  PI3KA_Act Ki: 0.198 nM

## C[C@]1(N2CCc3c(-c4cnc(N)nc4)nc(N4CCOCC4)nc32)CCN(C(=O)CN2CCC2)C1 [Example 325, 1-{(3S)-3-[4-(2-aminopyrimidin-5-yl)-2-(morpholin-4-yl)-5,6-dihydro-7H-pyrrolo[2,3-d]pyrimidin-7-yl]-3-methylpyrrolidin-1-yl}-2-(azetidin-1-yl)ethanone]
  PI3KA_Act Ki: 0.058 nM

## C[C@]1(N2CCc3c(-c4cnc(N)nc4)nc(N4CCOCC4)nc32)CCN(C(=O)C2CC2)C1 [Example 328, {(3S)-3-[4-(2-aminopyrimidin-5-yl)-2-(morpholin-4-yl)-5,6-dihydro-7H-pyrrolo[2,3-d]pyrimidin-7-yl]-3-methylpyrrolidin-1-yl}(cyclopropyl) methanone]
  PI3KA_Act Ki: 0.024 nM

## CC1(C(=O)N2CC[C@](C)(N3CCc4c(-c5cnc(N)nc5)nc(N5CCOCC5)nc43)C2)CC1 [Example 329, {(3S)-3-[4-(2-aminopyrimidin-5-yl)-2-(morpholin-4-yl)-5,6-dihydro-7H-pyrrolo[2,3-d]pyrimidin-7-yl]-3-methylpyrrolidin-1-yl}(1-methylcyclopropyl) methanone]
  PI3KA_Act Ki: <0.018 nM

## CC1(C(=O)N2CC[C@@](C)(N3CCc4c(-c5cnc(N)nc5)nc(N5CCOCC5)nc43)C2)CC1 [Example 330, {(3R)-3-[4-(2-aminopyrimidin-5-yl)-2-(morpholin-4-yl)-5,6-dihydro-7H-pyrrolo[2,3-d]pyrimidin-7-yl]-3-methylpyrrolidin-1-yl}(1-methylcyclopropyl) methanone]
  PI3KA_Act Ki: 0.152 nM

## C[C@]1(N2CCc3c(-c4cnc(N)nc4)nc(N4CCOCC4)nc32)CCN(C(=O)[C@H]2C[C@@H]2F)C1 [Example 332, {(3S)-3-[4-(2-aminopyrimidin-5-yl)-2-(morpholin-4-yl)-5,6-dihydro-7H-pyrrolo[2,3-d]pyrimidin-7-yl]-3-methylpyrrolidin-1-yl}[(1R,2S)-2-fluorocyclopropyl] methanone]
  PI3KA_Act Ki: <0.018 nM

## C[C@]1(N2CCc3c(-c4cnc(N)nc4)nc(N4CCOCC4)nc32)CCN(C(=O)[C@@H]2C[C@H]2F)C1 [Example 333, {(3S)-3-[4-(2-aminopyrimidin-5-yl)-2-(morpholin-4-yl)-5,6-dihydro-7H-pyrrolo[2,3-d]pyrimidin-7-yl]-3-methylpyrrolidin-1-yl}[(1S,2R)-2-fluorocyclopropyl] methanone]
  PI3KA_Act Ki: <0.018 nM

## C[C@]1(N2CCc3c(-c4cnc(N)nc4)nc(N4CCOCC4)nc32)CCN(C(=O)[C@@H]2C[C@@H]2F)C1 [Example 334, {(3S)-3-[4-(2-aminopyrimidin-5-yl)-2-(morpholin-4-yl)-5,6-dihydro-7H-pyrrolo[2,3-d]pyrimidin-7-yl]-3-methylpyrrolidin-1-yl}[(1S,2S)-2-fluorocyclopropyl] methanone]
  PI3KA_Act Ki: 0.021 nM

## C[C@]1(N2CCc3c(-c4cnc(N)nc4)nc(N4CCOCC4)nc32)CCN(C(=O)[C@H]2C[C@H]2F)C1 [Example 335, {(3S)-3-[4-(2-aminopyrimidin-5-yl)-2-(morpholin-4-yl)-5,6-dihydro-7H-pyrrolo[2,3-d]pyrimidin-7-yl]-3-methylpyrrolidin-1-yl}[(1R,2R)-2-fluorocyclopropyl] methanone]
  PI3KA_Act Ki: <0.018 nM

## C[C@]1(N2CCc3c(-c4cnc(N)nc4)nc(N4CCOCC4)nc32)CCN(C(=O)[C@H]2CC2(F)F)C1 [Example 336, {(3S)-3-[4-(2-aminopyrimidin-5-yl)-2-(morpholin-4-yl)-5,6-dihydro-7H-pyrrolo[2,3-d]pyrimidin-7-yl]-3-methylpyrrolidin-1-yl}[(1R)-2,2-difluorocyclopropyl] methanone]
  PI3KA_Act Ki: 0.054 nM

## C[C@]1(N2CCc3c(-c4cnc(N)nc4)nc(N4CCOCC4)nc32)CCN(C(=O)[C@@H]2CC2(F)F)C1 [Example 337, {(3S)-3-[4-(2-aminopyrimidin-5-yl)-2-(morpholin-4-yl)-5,6-dihydro-7H-pyrrolo[2,3-d]pyrimidin-7-yl]-3-methylpyrrolidin-1-yl}[(1S)-2,2-difluorocyclopropyl] methanone]
  PI3KA_Act Ki: <0.018 nM

## C[C@]1(N2CCc3c(-c4cnc(N)nc4)nc(N4CCOCC4)nc32)CCN(C(=O)C2(N)CC2)C1.Cl [Example 340, (1-aminocyclopropyl) {(3S)-3-[4-(2-aminopyrimidin-5-yl)-2-(morpholin-4-yl)-5,6-dihydro-7H-pyrrolo[2,3-d]pyrimidin-7-yl]-3-methylpyrrolidin-1-yl}methanone hydrochloride]
  PI3KA_Act Ki: 0.234 nM

## C[C@]1(N2CCc3c(-c4cnc(N)nc4)nc(N4CCOCC4)nc32)CCN(C(=O)C2CCC2)C1 [Example 341, {(3S)-3-[4-(2-aminopyrimidin-5-yl)-2-(morpholin-4-yl)-5,6-dihydro-7H-pyrrolo[2,3-d]pyrimidin-7-yl]-3-methylpyrrolidin-1-yl}(cyclobutyl)meth-anone]
  PI3KA_Act Ki: <0.018 nM

## C[C@@]1(N2CCc3c(-c4cnc(N)nc4)nc(N4CCOCC4)nc32)CCN(C(=O)C2CCC2)C1 [Example 342, {(3R)-3-[4-(2-aminopyrimidin-5-yl)-2-(morpholin-4-yl)-5,6-dihydro-7H-pyrrolo[2,3-d]pyrimidin-7-yl]-3-methylpyrrolidin-1-yl}(cyclobutyl)meth-anone]
  PI3KA_Act Ki: 0.141 nM

## C[C@]1(N2CCc3c(-c4cnc(N)nc4)nc(N4CCOCC4)nc32)CCN(C(=O)C2(O)CCC2)C1 [Example 343, {(3S)-3-[4-(2-aminopyrimidin-5-yl)-2-(morpholin-4-yl)-5,6-dihydro-7H-pyrrolo[2,3-d]pyrimidin-7-yl]-3-methylpyrrolidin-1-yl}(1-hydroxycyclobutyl) methanone]
  PI3KA_Act Ki: 0.089 nM

## C[C@@]1(N2CCc3c(-c4cnc(N)nc4)nc(N4CCOCC4)nc32)CCN(C(=O)C2(O)CCC2)C1 [Example 344, {(3R)-3-[4-(2-aminopyrimidin-5-yl)-2-(morpholin-4-yl)-5,6-dihydro-7H-pyrrolo[2,3-d]pyrimidin-7-yl]-3-methylpyrrolidin-1-yl}(1-hydroxycyclobutyl) methanone]
  PI3KA_Act Ki: 0.098 nM

## C[C@]1(N2CCc3c(-c4cnc(N)nc4)nc(N4CCOCC4)nc32)CCN(C(=O)C2CC(O)C2)C1 (stereo partly drawn) [Example 345, {(3S)-3-[4-(2-aminopyrimidin-5-yl)-2-(morpholin-4-yl)-5,6-dihydro-7H-pyrrolo[2,3-d]pyrimidin-7-yl]-3-methylpyrrolidin-1-yl}(3-hydroxycyclobutyl) methanone]
  PI3KA_Act Ki: 0.028 nM

## C[C@]1(N2CCc3c(-c4cnc(N)nc4)nc(N4CCOCC4)nc32)CCN(C(=O)C2(N)CCC2)C1 [Example 346, (1-aminocyclobutyl) {(3S)-3-[4-(2-aminopyrimidin-5-yl)-2-(morpholin-4-yl)-5,6-dihydro-7H-pyrrolo[2,3-d]pyrimidin-7-yl]-3-methylpyrrolidin-1-yl}methanone]
  PI3KA_Act Ki: 0.125 nM

## C[C@]1(N2CCc3c(-c4cnc(N)nc4)nc(N4CCOCC4)nc32)CCN(C(=O)[C@@H]2CCN2)C1.Cl [Example 347, {(3S)-3-[4-(2-aminopyrimidin-5-yl)-2-(morpholin-4-yl)-5,6-dihydro-7H-pyrrolo[2,3-d]pyrimidin-7-yl]-3-methylpyrrolidin-1-yl}[(2S)-azetidin-2-yl]methanone hydrochloride]
  PI3KA_Act Ki: 0.075 nM

## C[C@]1(N2CCc3c(-c4cnc(N)nc4)nc(N4CCOCC4)nc32)CCN(C(=O)C2CCN2)C1.Cl (stereo partly drawn) [Example 348, {(3S)-3-[4-(2-aminopyrimidin-5-yl)-2-(morpholin-4-yl)-5,6-dihydro-7H-pyrrolo[2,3-d]pyrimidin-7-yl]-3-methylpyrrolidin-1-yl}(azetidin-2-yl)methanone hydrochloride]
  PI3KA_Act Ki: 0.066 nM
